Measured values: publication PMC4038613, “A New Class of Multimerization Selective Inhibitors of HIV-1 Integrase” (PLoS Pathogens, 2014)

Assays:
HIV-1 capsid (p24) = assay: Sucrose density gradient fractionation of detergent-lysed virions; assay type: cell-based; details: 1 µM KF116, fractions 18–20
Procedure: Cell-free virions were harvested, detergent-lysed, and separated on 30–70% linear sucrose density gradients. Twenty-one 0.5 ml fractions were collected from the top of the gradient and subjected to SDS-PAGE and immunoblotted with HIV-1 Gag antisera to monitor the distribution of HIV-1 capsid. […] (D) Quantitation of HIV-1 capsid (p24) signal intensity from (B) as measured by ImageJ software. Graph represents the relative distribution of HIV-1 capsid (p24) in each of the sucrose density gradient fractions.
Sucrose density gradient fractionation was carried out as described previously [74] with some modifications. Briefly, HIV-1 virions were produced in the presence of the inhibitor or diluent control (DMSO) and cell-free virions were concentrated over a 25% sucrose cushion by ultra-centrifugation at 28,000 rpm for 2 h at 4°C in SW41 rotor (Beckman). Pelleted virions were resuspended in 300 µl STE buffer (10 mM Tris pH 7.5, 100 mM NaCl, 1 mM EDTA), lysed with 0.5% Triton X100 for 2 minutes at room temperature. Lysed virions were loaded on 30–70% linear sucrose density gradients in STE buffer, and ultra-centrifuged at 28,500 rpm for 16 h at 4°C in SW41 rotor (Beckman). Twenty-one 0.5-ml fractions were collected from the top of the gradient and subjected to SDS-PAGE and immunoblotted with HIV-1 Gag antisera to monitor the distribution of HIV-1 capsid.

IN-LEDGF/p75 = IN-LEDGF/p75 (Human immunodeficiency virus type 1 group M subtype B, UniProt P12497); assay: HTRF-based IN-LEDGF/p75 binding assay; parameters: species or system HIV-1
Procedure: HTRF-based IN multimerization and IN-LEDGF/p75 binding assays were carried out as described previously [33].

HIV-1 particles = assay: Virus production (Gag p24 ELISA) and virion protein processing (immunoblot); assay type: cell-based; details: 1 µM KF116
Procedure: HEK293T cells (2×10^6 cells/100 mm culture dish in 10 ml of complete medium) were transfected with HIV-1 provirus (pNL4-3) and cultured for 24 h to ensure expression of the provirus as described above. Next, the cells were treated with the indicated inhibitor or diluent control (DMSO) for 1 h. The culture supernatant was replaced with fresh complete medium containing either the inhibitor or DMSO, and cells were then cultured for another 24 h to allow for the production of HIV-1 particles in the presence of the inhibitor or diluent control. The virus containing cell-free supernatant was collected, filtered through 0.45 µm filter, and the amounts of viral particles produced was measured by HIV-1 Gag p24 ELISA (ZeptoMetrix) following manufacturer's protocol. Equivalent amounts of virions (∼5 µg p24 based on HIV-1 p24 ELISA) were concentrated over a 25% sucrose cushion by ultra-centrifugation at 28,000 rpm for 2 h at 4°C in SW41 rotor (Beckman). Pelleted virions were lysed in 100 µL RIPA buffer containing 50 mM Tris (pH 8.0), 150 mM NaCl, 0.1% SDS, 1% Triton-X, 1% deoxycholic acid, and 2 mM PMSF. Indicated amounts of concentrated virions were resolved by SDS-PAGE (4–12%, Invitrogen) and immunoblotted.
HEK293T cells were transfected with HIV-1 provirus (pNL4-3). […] (A) Virus-containing cell-free supernatant were harvested and cell-free Gag was measured by HIV-1 Gag p24 ELISA. […]

virion-associated RT = assay: Virion-associated Reverse Transcriptase (RT) assay; assay type: biochemical, HIV-1; details: virions produced with 1 µM KF116
Procedure: Virions generated in the presence of inhibitor or diluent control (DMSO) was concentrated over 25% sucrose cushion. The virion-associated RT activity assay was performed as described previously, [81] with minor changes. Briefly, equivalent amounts of concentrated virions (based on HIV-1 p24 ELISA) were incubated with RT buffer, containing 50 mM Tris (pH 7.8), 75 mM KCL, 5 mM MgCl2, 2 mM DTT, 0.05% Nonidet P-40 (v/v), 5 µg/ml Poly r(A). Poly d(T)12–18, and 10 µCi of α-^32P dTTP, in 35 µl final volume. The reactions were incubated at room temperature for 3 h. Duplicate 10 µl of the final reactions were blotted onto a 96-well DEAE Filtermat paper (Wallac-Perkin Elmer), dried, washed and processed as described previously.
The initiation of reverse transcription from total viral RNA was measured using an in vitro HIV-1 reverse transcription reaction, which extends tRNA^Lys3 primer on viral RNA template by +6-nt. The final reaction products were resolved by PAGE and detected by phosphorimager analysis. (Upper panel) A representative image of the 6-nt extension products is shown. (Lower panel) The bar graph represents quantification of bands from the upper panel using ImageJ software. The signal intensity obtained for the non-treated (DMSO) sample was set to 100%. […] Equivalent amounts of concentrated virions, based on HIV-1 p24 ELISA, were analyzed for virion-associated RT activity. […]

IN = molecular target: T1, IN (Human immunodeficiency virus type 1 group M subtype B, UniProt P12497); assay: DLS assay of recombinant IN multimerization; assay type: biochemical, HIV-1
T1 construct: DLS analysis of KF116-induced multimerization of recombinant IN
Procedure: (A) DLS analysis of KF116-induced multimerization of recombinant IN. […] The indicated volumes of cross-linked reaction products were resolved by SDS-PAGE and immunoblotted with HIV-1 IN antibody. The bands corresponding to IN “monomer”, “dimer”, and “higher order oligomers” are indicated.
DLS signals were recorded at room temperature using a Malvern Nano series zetasizer instrument.

Cc1nc(-c2nc3ccc(Cl)cc3[nH]2)c(C)c(-c2ccccc2)c1C(OC(C)(C)C)C(=O)O (stereo not drawn) [KF116]
reduction of HIV-1 capsid (p24) in higher density fractions (HIV-1 capsid (p24)): > 95%
IC50 (IN-LEDGF/p75): 5.03 ± 0.36 µM
effect on HIV-1 Gag/Gag-Pol protein processing (HIV-1 particles): did not affect
effect on virus particle production (HIV-1 particles): did not affect
effect on virion-associated RT activities (virion-associated RT): no effects
DLS particle size diameter, 30 min (IN; 1 µM KF116, 200 nM IN): 1106 nm
DLS particle size diameter, 120 min (IN; 1 µM KF116, 200 nM IN): 1281 nm
DLS particle size diameter, immediately upon addition (2 minutes) (IN; 1 µM KF116, 200 nM IN): 142 nm
DLS signal of inhibitor alone (self-aggregation in aqueous solution) (IN; only KF116, no IN): no signal was recorded
